pEC50: −log10 of the molar value.
Experiments:
ob/ob mice [1] = experiment: Plasma glucose, compound in chow, obese mice; type: in vivo, mouse (C57 B1/6J ob/ob)
Protocol: (§1) The compounds of this invention were tested for hypoglycemic and anti-obesity activity according to the following procedure.
(§2) Obese mice (C57 B1/6J (ob/ob)), and/or diabetic mice (C57 B1/KsJ (db/db)) were obtained from Jackson Laboratories, Bar Harbor, Maine. Obese rats (fa/fa) were obtained from Charles River Laboratories, Wilmington, Mass. Obese mice were 8 weeks of age and diabetic mice were 9 weeks of age at the start of the test. Obese rats were 12-14 weeks of age at the start.
(§3) The test compounds were dissolved in methanol, mixed with powdered Purina rodent chow on a weight of compound to weight of chow basis and thoroughly dried.
(§4) Groups of 6 control mice or rats received vehicle (methanol) treated chow.
[…] Thus, a 40 g mouse, fed the test compound at a concentration of 0.02 percent of the diet, would receive a dose of 20 mg/kg/day if it ate 4 g of chow per day.
(§5) The mice or rats were weighed before the first treatment and once at the end of each indicated treatment period.
(§6) Blood samples were collected before the first treatment and once at the end of each indicated treatment period by retro-orbital puncture using heparinized capillary tubes.
(§7) Plasma was separated by centrifugation in a Beckman microfuge for 5 minutes. Plasma glucose concentrations were determined with the Beckman glucose analyzer which uses a glucose oxidase method.

db/db mice = experiment: Plasma glucose, compound in chow, diabetic mice; type: in vivo, mouse (C57 B1/KsJ db/db)
Protocol: as §1, §2, §3, §4
(§8) Groups of 6 test mice were fed ad libitum for up to seven weeks and food consumption was measured daily by weighing the food bins before and after the addition of fresh chow. Thus, a 40 g mouse, fed the test compound at a concentration of 0.02 percent of the diet, would receive a dose of 20 mg/kg/day if it ate 4 g of chow per day.
as §5, §6, §7

ob/ob mice [2] = experiment: Change in weight and food consumption, compound in chow, obese mice; type: in vivo, mouse (C57 B1/6J ob/ob)
Protocol: as §1, §2, §3, §4, §8, §5

β3-receptors = target: T1, β3-receptors (Rattus norvegicus, UniProt P26255); experiment: Stimulation of adipocyte lipolysis (β3-effect); type: cell-based; details: CL1 vs BRL1 (FIG. 1), CL2 vs BRL2 (FIG. 2)
T1 construct: Rat epididymal fat pads were excised and placed in 0.9% saline; from tissue; host or cells: collagenase-isolated adipocytes from rat epididymal fat pads
T1 sequence (P26255 whole entry): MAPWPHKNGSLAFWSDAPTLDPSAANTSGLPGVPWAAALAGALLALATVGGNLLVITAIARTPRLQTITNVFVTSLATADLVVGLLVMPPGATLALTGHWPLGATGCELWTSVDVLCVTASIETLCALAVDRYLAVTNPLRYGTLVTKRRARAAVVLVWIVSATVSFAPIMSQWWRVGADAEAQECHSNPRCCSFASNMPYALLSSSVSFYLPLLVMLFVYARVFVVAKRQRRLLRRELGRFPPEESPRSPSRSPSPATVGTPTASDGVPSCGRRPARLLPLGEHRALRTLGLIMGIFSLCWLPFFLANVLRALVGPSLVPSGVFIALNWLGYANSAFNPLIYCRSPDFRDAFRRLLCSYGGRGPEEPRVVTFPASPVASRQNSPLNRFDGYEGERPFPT
Protocol: (§9) β-Adrenergic receptors can be divided into β1, β2 and β3 -subtypes. Activation of β1 -receptors invokes increases in heart rate while activation of β2 -receptors stimulates glycogen breakdown in muscle and thereby prevents glycogen synthesis. Activation of β3 -receptors stimulates lipolysis (the breakdown of adipose tissue triglycerides to glycerol and free fatty acids), and thereby promotes the loss of fat mass.
The β3 -effect of the compounds was determined by their ability to stimulate adipocyte lipolysis. Rat epididymal fat pads were excised and placed in 0.9% saline. Four grams of tissue were transferred to a flask with 20 ml of aerated Krebs-Henseleit bicarbonate (KHB) buffer containing 3% fatty acid-free bovine serum albumin to which 75 mg of crude bacterial collagenase (Worthington) had been added. The tissue was incubated for about 45 minutes at 37° C. with gentle shaking. The cells were then washed three times with two volumes of KHB buffer, filtered through two layers of gauze, and brought to a final volume of 80 ml with KHB buffer. One ml aliquots of the cell suspension were added to plastic test tubes containing the appropriate additions of vehicle or compound. The cells were gassed for 1 minute with 95% O2 -5% CO2, capped, and incubated at 37° C. with continuous shaking for a total of 30 minutes. The reaction was stopped by adding 0.1 ml of 30% perchloric acid and 0.1 ml of chloroform. After centrifugation, 0.5 ml of supernatant was transferred to another test tube and neutralized with 0.04 ml of 3M K2 CO3 -0.5M triethanolamine. The amount-of glycerol generated from the hydrolysis of endogenous triglycerides was determined in a coupled-enzyme spectrophotometric assay. […] The test tubes were incubated for 40 minutes at 37° C. with constant shaking. […] This value was corrected for the amount of NADH generated in the absence of glycerol by incubating another aliquot of the neutralized extract with the same assay mixture but without glycerokinase.

β1-receptors = target: T2, β1-receptors (Cavia porcellus, UniProt H0W3H1); experiment: Effect on heart rate of isolated right atria (β1-effect); parameters: species or system guinea pig
T2 construct: from tissue; host or cells: guinea pig right atria
T2 sequence (H0W3H1 1-470): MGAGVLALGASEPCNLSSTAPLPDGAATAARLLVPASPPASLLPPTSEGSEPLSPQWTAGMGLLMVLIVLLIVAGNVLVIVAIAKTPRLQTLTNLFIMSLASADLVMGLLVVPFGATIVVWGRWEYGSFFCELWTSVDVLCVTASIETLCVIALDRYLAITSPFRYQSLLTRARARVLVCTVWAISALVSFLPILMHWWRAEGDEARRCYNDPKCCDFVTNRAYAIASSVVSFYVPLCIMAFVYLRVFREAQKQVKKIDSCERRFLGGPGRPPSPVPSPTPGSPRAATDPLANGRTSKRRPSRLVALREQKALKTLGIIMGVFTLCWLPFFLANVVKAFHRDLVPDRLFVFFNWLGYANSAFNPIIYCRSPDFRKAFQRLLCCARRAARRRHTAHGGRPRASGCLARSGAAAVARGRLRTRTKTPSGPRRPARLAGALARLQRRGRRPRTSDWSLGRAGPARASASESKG
Protocol: as §9
Selectivity of a compound was determined using the following procedures. The effect on heart rate (β1 -effect) was determined using isolated right atria. […] The right atria were dissected and clamped at one end to a tissue holder and electrode assembly (MRA Corp.) and tied at the other end to a force-displacement transducer (Gould-Statham, Burco). The tissues were maintained at 32° C. in a 50 ml capacity glass chamber (MRA Corp.) preloaded with 0.5 g tension. Heart rate was monitored by a Grass polygragh. […] The increase in heart rate was calculated and considered to be the maximum response for that tissue. The tissues were then washed and allowed to equilibrate for 90 minutes. Cumulative concentration-response curves were then determined for each compound or vehicle. All responses were measured 5 minutes post-exposure.

β2-receptors = target: T3, β2-receptors (Mus musculus, UniProt P18762); experiment: Inhibition of insulin-mediated incorporation of 14C-glucose into glycogen in isolated soleus muscle (β2-effect)
T3 construct: Soleus muscle from mice were dissected; from tissue; host or cells: mouse soleus muscle
T3 sequence (P18762 whole entry): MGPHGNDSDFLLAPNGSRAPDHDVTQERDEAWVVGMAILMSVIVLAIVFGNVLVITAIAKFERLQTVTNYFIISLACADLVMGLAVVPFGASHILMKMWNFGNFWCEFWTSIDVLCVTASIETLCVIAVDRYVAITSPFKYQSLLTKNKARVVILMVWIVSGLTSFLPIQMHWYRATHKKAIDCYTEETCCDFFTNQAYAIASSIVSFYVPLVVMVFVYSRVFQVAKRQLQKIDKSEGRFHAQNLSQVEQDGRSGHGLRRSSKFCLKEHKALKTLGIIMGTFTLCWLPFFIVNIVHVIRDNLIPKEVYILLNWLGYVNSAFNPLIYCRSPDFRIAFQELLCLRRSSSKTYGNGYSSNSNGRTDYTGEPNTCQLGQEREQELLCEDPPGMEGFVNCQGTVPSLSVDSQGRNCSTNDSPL
Protocol: as §9
The β2 -effect of the compounds was determined by their ability to inhibit the insulin-mediated incorporation of ^14 C-glucose into glycogen in isolated muscle. Soleus muscle from mice were dissected, tied at each end, and placed in a clamp to maintain tension. The clamped muscle was added to a vial that contained 2 ml of KHB with 1.5% bovine serum albumin, 0.3 mU/ml insulin, 5 mM (U^-14 C) glucose, and the appropriate additions of compound or vehicle. The vial was gassed with 95% O2 -5% CO2, capped, and the tissue incubated for one hour in a rotating water bath at 37° C. The muscle was then removed, rinsed in ice-cold saline, blotted and weighed. It was then added to 1 ml of 30% KOH containing 5 mg/ml of oyster glycogen, boiled for 10 minutes, and 0.4 ml of 2% Na2 SO4 and 3.2 ml of 100% ethanol added. After standing overnight at 4° C., the glycogen was pelleted by centrifugation, washed once with 66% ethanol, and repelleted. The pellet was dissolved in 1 ml of water and the amount of radioactivity present determined by liquid scintillation.

[3] = dose 0.002 % wt of chow, week 0 (before treatment)
[4] = dose 0.002 % wt of chow, week 1
[5] = dose 0.002 % wt of chow, week 4
[6] = dose 0.005 % wt of chow, week 0 (before treatment)
[7] = dose 0.005 % wt of chow, week 1
[8] = dose 0.005 % wt of chow, week 4
[9] = CL1 vs BRL1 (FIG. 1), CL2 vs BRL2 (FIG. 2)

Question: What does the source list for `C[C@H](Cc1ccc2c(c1)OC(C(=O)[O-])(C(=O)[O-])O2)NC[C@H](O)c1cccc(Cl)c1.[Na+].[Na+]` (stereo in doubt) [CL2, (R*,R*)-(±)-5(2-((2-(3-chlorophenyl)-2-hydroxyethyl)amino)propyl)-1,3-benzodioxole-2,2-dicarboxylic acid, disodium salt]?
Answer: Plasma Glucose Levels (ob/ob mice [1]; dose 0.0005 % wt of chow, week 0 (before treatment)): 218 mg/100 ml; Plasma Glucose Levels (ob/ob mice [1]; dose 0.0005 % wt of chow, week 1): 193 mg/100 ml; Plasma Glucose Levels (ob/ob mice [1]; dose 0.0005 % wt of chow, week 4): 240 mg/100 ml; Plasma Glucose Levels (ob/ob mice [1]; [3]): 220 mg/100 ml; Plasma Glucose Levels (ob/ob mice [1]; [4]): 162 mg/100 ml; Plasma Glucose Levels (ob/ob mice [1]; [5]): 197 mg/100 ml; Plasma Glucose Levels (ob/ob mice [1]; [6]): 220 mg/100 ml; Plasma Glucose Levels (ob/ob mice [1]; [7]): 145 mg/100 ml; Plasma Glucose Levels (ob/ob mice [1]; [8]): 165 mg/100 ml; Plasma Glucose Levels (db/db mice; [3]): 453 mg/100 ml; Plasma Glucose Levels (db/db mice; [4]): 236 mg/100 ml; Plasma Glucose Levels (db/db mice; dose 0.002 % wt of chow, week 5): 190 mg/100 ml; Plasma Glucose Levels (db/db mice; dose 0.002 % wt of chow, week 7): 25 mg/100 ml; Plasma Glucose Levels (db/db mice; [6]): 452 mg/100 ml; Plasma Glucose Levels (db/db mice; [7]): 155 mg/100 ml; Plasma Glucose Levels (db/db mice; dose 0.005 % wt of chow, week 5): 145 mg/100 ml; Plasma Glucose Levels (db/db mice; dose 0.005 % wt of chow, week 7): 16 mg/100 ml; Average Daily Food Consumption (ob/ob mice [2]; dose 0.002 % wt of chow): 5.2 g/animal; Change in weight (ob/ob mice [2]; [4]): 1.6 grams; Change in weight (ob/ob mice [2]; dose 0.002 % wt of chow, week 2): 4.1 grams; Change in weight (ob/ob mice [2]; dose 0.002 % wt of chow, week 3): 4.7 grams; Change in weight (ob/ob mice [2]; [5]): 7.3 grams; Average Daily Food Consumption (ob/ob mice [2]; dose 0.005 % wt of chow): 5.9 g/animal; Change in weight (ob/ob mice [2]; [7]): 0.2 grams; Change in weight (ob/ob mice [2]; dose 0.005 % wt of chow, week 2): 1.6 grams; Change in weight (ob/ob mice [2]; dose 0.005 % wt of chow, week 3): 2.4 grams; Change in weight (ob/ob mice [2]; [8]): 4.7 grams; β3 potency in comparison (β3-receptors): slightly greater β3 potency than does BRL2; pEC50 (β1-receptors): < 3.00; β1 activity (β1-receptors; [9]): no measurable β1 activity; pEC50 (β2-receptors): < 4.00; β2 activity (β2-receptors; [9]): only minimal β2 activity at 1×10^-4 M

Reference: patent US5373020A, “Substituted 5-(2-((2-aryl-2-hydroxyethyl)amino)propyl)-1,3-benzodioxoles” (American Cyanamid Company, priority 1993, dated 1994)
